Data set [1] relates to Streptococcus pyogenes SSI-9. Kind of data set: Antibacterial activity assay of bead-derived peptides (three concentrations). The format is cell-based. Also noted: key: +++: inhibition by the 640-fold diluted peptide solution; ++: inhibition by the 160-fold diluted solution; +: inhibition by the 40-fold diluted solution; -: no inhibition. To be noted: S. pyogenes, bead-derived peptide solution, three concentrations. The method, boiled down:
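First, each peptide stock was diluted 4- and 16-fold in DMSO; next, the three solutions were mixed with S. pyogenes SSI-9 suspension (2 × 10^5 CFU) in cation-adjusted Mueller Hinton Broth plus 5% laked horse blood; finally, plates stood 18 h at 37 °C before checking for grown-cell precipitation.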

The subject of data set [2] is P388 mouse leukemia cells. The note with it: 92 h. The essentials: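 Peptide stocks diluted 250× in growth medium; P388 cells 1 × 10^4 cells/mL final; 37 °C, 5% CO2, 92 h. WST-1 + 1-methoxy PMS, 4 h, A415. Output: % viability.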
The nature of data set [3]: H+/Na+ transport assay of bead-derived peptides (one-point).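 Also: relative to parent gramicidin A activity set to 1.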 To be noted: bead-derived peptide solution, EYPC/EYPG LUVs. The format is biochemical. Also noted: key: relative activity; mean of two control wells = 1.00. The method, boiled down: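 One-point screen: peptide + pyranine-loaded LUVs, 30 min RT with vortexing, 96-well. Read-out is fluorescence intensity scaled as 100 × (Ix – I0)/(Imax – I0). Imax from Triton X-100, I0 from untreated vesicles, and the mean of the two control wells is set to 1.00.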

Where a SMILES comes first, the peptide text is derived from it. [ ]: non-standard residue; d: D form. The star is where a group is joined. NHCH2CH2OH = OCCN*; For = O=C*

As to `CNC(=O)C[C@@H](NC(=O)[C@@H](NC(=O)[C@@H](CC(C)C)NC(=O)[C@H](C)NC(=O)[C@H](NC(=O)[C@H](C)NC(=O)CNC(=O)[C@@H](NC=O)C(C)C)C(C)C)C(C)C)C(=O)N[C@@H](Cc1c[nH]c2ccccc12)C(=O)N[C@H](CC(C)C)C(=O)N[C@@H](Cc1c[nH]c2ccccc12)C(=O)N[C@H](CC(C)C)C(=O)N[C@@H](Cc1c[nH]c2ccccc12)C(=O)N[C@@H](C(=O)N[C@@H](Cc1c[nH]c2ccccc12)C(=O)NCCO)C(C)C` [compound 9229] (For-VGA[dV]A[dL]V[dD](NHMe)W[dL]W[dL]W[dV]W-NHCH2CH2OH), in data set [1], the antibacterial activity entry is “-”. The molecule also displayed a cell viability/% in data set [2] of 100.0%. In addition, the “H+/Na+ transport activity normalized against the value of 1 (1.00)” value (“H+/Na+ transport activity normalized” below) in data set [3] worked out at 1.15.
On the same counts, the results for `CC(C)C[C@@H](NC(=O)[C@H](Cc1c[nH]c2ccccc12)NC(=O)[C@H](NC(=O)[C@H](Cc1c[nH]c2ccccc12)NC(=O)[C@@H](CC(C)C)NC(=O)[C@H](Cc1c[nH]c2ccccc12)NC(=O)[C@H](NC(=O)[C@@H](NC(=O)[C@H](NC(=O)[C@H](C)NC(=O)[C@H](NC(=O)[C@H](C)NC(=O)CNC(=O)[C@@H](NC=O)C(C)C)C(C)C)C(C)C)C(C)C)C(C)C)C(C)C)C(=O)N[C@@H](Cc1c[nH]c2ccccc12)C(=O)NCCO` [compound 9293] (For-VGA[dV]A[dV]V[dV]W[dL]W[dV]W[dL]W-NHCH2CH2OH) are “++”, 4.3% and 1.05.
Consider `CNC(=O)C[C@@H](NC(=O)[C@@H](NC(=O)[C@H](NC(=O)[C@H](C)NC(=O)[C@@H](CC(C)C)NC(=O)[C@H](C)NC(=O)CNC(=O)[C@@H](NC=O)C(C)C)C(C)C)C(C)C)C(=O)N[C@@H](Cc1c[nH]c2ccccc12)C(=O)N[C@H](CC(C)C)C(=O)N[C@@H](Cc1c[nH]c2ccccc12)C(=O)N[C@H](CC(C)C)C(=O)N[C@@H](Cc1c[nH]c2ccccc12)C(=O)N[C@H](CC(C)C)C(=O)N[C@@H](Cc1c[nH]c2ccccc12)C(=O)NCCO` [compound 9336] (For-VGA[dL]A[dV]V[dD](NHMe)W[dL]W[dL]W[dL]W-NHCH2CH2OH), for which the antibacterial activity entry in data set [1] is “-”. Moreover, the cell viability/% in data set [2] is on record as 100.0%. Moreover, the “H+/Na+ transport activity normalized” value in data set [3] amounted to 1.18.
On the same counts, the results for `CNC(=O)C[C@@H](NC(=O)[C@H](C)NC(=O)[C@@H](CC(C)C)NC(=O)[C@H](C)NC(=O)CNC(=O)[C@@H](NC=O)C(C)C)C(=O)N[C@H](C(=O)N[C@@H](C(=O)N[C@@H](Cc1c[nH]c2ccccc12)C(=O)N[C@H](CC(C)C)C(=O)N[C@@H](Cc1c[nH]c2ccccc12)C(=O)N[C@@H](C(=O)N[C@@H](Cc1c[nH]c2ccccc12)C(=O)N[C@H](CC(C)C)C(=O)N[C@@H](Cc1c[nH]c2ccccc12)C(=O)NCCO)C(C)C)C(C)C)C(C)C` [compound 9352] (For-VGA[dL]A[dD](NHMe)V[dV]W[dL]W[dV]W[dL]W-NHCH2CH2OH) are “-”, 100.0% and 1.18.
On to `CC(C)C[C@@H](NC(=O)[C@H](Cc1c[nH]c2ccccc12)NC(=O)[C@H](NC(=O)[C@H](Cc1c[nH]c2ccccc12)NC(=O)[C@H](NC(=O)[C@H](Cc1c[nH]c2ccccc12)NC(=O)[C@H](NC(=O)[C@@H](NC(=O)[C@H](NC(=O)[C@H](C)NC(=O)[C@H](NC(=O)[C@H](C)NC(=O)CNC(=O)[C@@H](NC=O)C(C)C)[C@H](C)O)C(C)C)C(C)C)C(C)C)C(C)C)C(C)C)C(=O)N[C@@H](Cc1c[nH]c2ccccc12)C(=O)NCCO` [compound 9354] (For-VGA[dT]A[dV]V[dV]W[dV]W[dV]W[dL]W-NHCH2CH2OH), for which the antibacterial activity result in data set [1] is recorded as “-”. For the same molecule, the cell viability/% in data set [2] was found to be 100.0%. In addition, the “H+/Na+ transport activity normalized” value in data set [3] amounted to 1.16.
As for `CC(C)C[C@@H](NC(=O)[C@H](C)NC(=O)CNC(=O)[C@@H](NC=O)C(C)C)C(=O)N[C@@H](C)C(=O)N[C@H](CC(C)C)C(=O)N[C@H](C(=O)N[C@H](CC(C)C)C(=O)N[C@@H](Cc1c[nH]c2ccccc12)C(=O)N[C@H](CC(C)C)C(=O)N[C@@H](Cc1c[nH]c2ccccc12)C(=O)N[C@@H](C(=O)N[C@@H](Cc1c[nH]c2ccccc12)C(=O)N[C@H](CC(C)C)C(=O)N[C@@H](Cc1c[nH]c2ccccc12)C(=O)NCCO)C(C)C)C(C)C` [compound 9473] (For-VGA[dL]A[dL]V[dL]W[dL]W[dV]W[dL]W-NHCH2CH2OH), the antibacterial activity entry in data set [1] is listed as “-”. The molecule further displayed a cell viability/% in data set [2] of 0.0%. In addition, in data set [3], the “H+/Na+ transport activity normalized” value is reported as 1.04.
On the same counts, the results for `CC(C)C[C@@H](NC(=O)[C@H](C)NC(=O)[C@H](NC(=O)[C@H](C)NC(=O)CNC(=O)[C@@H](NC=O)C(C)C)C(C)C)C(=O)N[C@H](C(=O)N[C@@H](C(=O)N[C@@H](Cc1c[nH]c2ccccc12)C(=O)N[C@H](CC(C)C)C(=O)N[C@@H](Cc1c[nH]c2ccccc12)C(=O)N[C@@H](C(=O)N[C@@H](Cc1c[nH]c2ccccc12)C(=O)N[C@@H](C(=O)N[C@@H](Cc1c[nH]c2ccccc12)C(=O)NCCO)C(C)C)C(C)C)[C@H](C)O)C(C)C` [compound 9487] (For-VGA[dV]A[dL]V[dT]W[dL]W[dV]W[dV]W-NHCH2CH2OH) are “-”, 100.0% and 1.15.
For `CNC(=O)C[C@@H](NC(=O)[C@@H](NC(=O)[C@H](NC(=O)[C@H](C)NC(=O)[C@@H](CC(C)C)NC(=O)[C@H](C)NC(=O)CNC(=O)[C@@H](NC=O)C(C)C)C(C)C)C(C)C)C(=O)N[C@@H](Cc1c[nH]c2ccccc12)C(=O)N[C@@H](C(=O)N[C@@H](Cc1c[nH]c2ccccc12)C(=O)N[C@H](CC(C)C)C(=O)N[C@@H](Cc1c[nH]c2ccccc12)C(=O)N[C@@H](C(=O)N[C@@H](Cc1c[nH]c2ccccc12)C(=O)NCCO)C(C)C)C(C)C` [compound 9521] (For-VGA[dL]A[dV]V[dD](NHMe)W[dV]W[dL]W[dV]W-NHCH2CH2OH) the same measures were “-”, 100.0% and 1.14.
As for `CC(C)C[C@@H](NC(=O)[C@H](C)NC(=O)[C@H](NC(=O)[C@H](C)NC(=O)CNC(=O)[C@@H](NC=O)C(C)C)C(C)C)C(=O)N[C@H](C(=O)N[C@@H](C(=O)N[C@@H](Cc1c[nH]c2ccccc12)C(=O)N[C@H](CC(C)C)C(=O)N[C@@H](Cc1c[nH]c2ccccc12)C(=O)N[C@H](CC(C)C)C(=O)N[C@@H](Cc1c[nH]c2ccccc12)C(=O)N[C@@H](C(=O)N[C@@H](Cc1c[nH]c2ccccc12)C(=O)NCCO)C(C)C)C(C)C)C(C)C` [compound 9535] (For-VGA[dV]A[dL]V[dV]W[dL]W[dL]W[dV]W-NHCH2CH2OH), in data set [1], the antibacterial activity entry was “-”. The same molecule showed a cell viability/% in data set [2] of 3.8%. Besides, in data set [3], the “H+/Na+ transport activity normalized” value is listed as 1.16.
Take `CC(C)C[C@@H](NC(=O)[C@H](Cc1c[nH]c2ccccc12)NC(=O)[C@H](NC(=O)[C@H](Cc1c[nH]c2ccccc12)NC(=O)[C@H](NC(=O)[C@@H](NC(=O)[C@H](NC(=O)[C@H](C)NC(=O)[C@H](NC(=O)[C@H](C)NC(=O)CNC(=O)[C@@H](NC=O)C(C)C)C(C)C)C(C)C)C(C)C)C(C)C)C(C)C)C(=O)N[C@@H](Cc1c[nH]c2ccccc12)C(=O)N[C@@H](C(=O)N[C@@H](Cc1c[nH]c2ccccc12)C(=O)NCCO)C(C)C` [compound 9571] (For-VGA[dV]A[dV]V[dV]W[dV]W[dL]W[dV]W-NHCH2CH2OH): the antibacterial activity result in data set [1] was “+”. In addition, in data set [2], the cell viability/% amounted to 100.0%. The “H+/Na+ transport activity normalized” value in data set [3] is recorded as 1.14.

(Values after PMC7531004, “Discovery of gramicidin A analogues with altered activities by multidimensional screening of a one-bead-one-compound library” (Nature Communications, 2020).)
